Patent US12145947B2, “Pyrimidine based modulators and uses thereof” (Quanta Therapeutics, Inc., priority 2022, dated 2024)

Legend:
[1] = target: T1, GST-tagged KRAS-G12D (2-169) (Homo sapiens, UniProt P01116, G12D); assay: Nucleotide exchange assay (NEA), SOS-mediated, HTRF, KRAS G12D; assay type: biochemical; conditions: Table 4, IC50 extracted at 30 min
T1 construct: GST-tagged KRAS-G12D (2-169, Reaction Biology, MSC-11-539); purchased Reaction Biology MSC-11-539 (KRAS G12D); MSC-11-502 (SOS1cat)
T1 sequence (P01116 2-169 isoform P01116-2 G12D): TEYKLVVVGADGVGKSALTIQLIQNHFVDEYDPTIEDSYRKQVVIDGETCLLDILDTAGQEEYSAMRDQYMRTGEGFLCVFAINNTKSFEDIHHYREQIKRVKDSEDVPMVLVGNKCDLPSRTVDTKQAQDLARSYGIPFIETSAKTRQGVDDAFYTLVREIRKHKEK
Outline: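 IC50 values come from 4-parameter fits at the 30 min time point of an SOS-driven exchange read by HTRF, normalised to DMSO (0%) and SOS-free blank (100%). Final reaction: 5 nM GST-KRAS-G12D (2-169), 20 nM SOScat, 150 nM fluorescent GTP-DY-647P1, after 1 h RT compound preincubation with KRAS and Tb-cryptate anti-GST.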

[2] = tested on: GP2D cells (KRAS G12D), phospho-ERK; assay: pERK In Cell Western (ICW) assay, GP2D cells; assay type: cell-based; conditions: Table 4, 3 hours
Method: pERK ICW is a high throughput screening assay to evaluate the cellular potency of mutant KRAS small molecule inhibitors. KRAS mutant cell lines AGS and GP2D (KRAS^G12D) were purchased from ATCC and maintained respectively in RPMI and DMEM medium supplemented with 10% fetal bovine serum and Penicillin/Streptomycin.
Cells grown in exponential phase were trypsinized, resuspended in fresh media, and viable cells were counted using a cell counter with Trypan Blue (BioRad TC20). Cells were seeded into 384-well plate (Greiner 781091) at density of 5,000 cells/well for AGS and 10,000 cells/well for GP2D and allowed to grow overnight in a 37° C. CO2 incubator. The next day, compounds were dispensed into wells with a ½ log, 10-point serial dilution and top concentration of […] using Tecan D300e dispenser and incubated for 3 hours in a 37° C. CO2 incubator. Cells were then fixed with paraformaldehyde (Electron Microscopy Sciences, 15710, 4% final concentration) for 30 min, permeabilized with wash buffer (1×PBS+0.1% Triton X-100) for 30 min and blocked with Odyssey blocking buffer (Li—COR 927-70001) for 1 hour, all at room temperature (RT). Phospho-ERK antibody (CST 4370L) was diluted 1:500 in Odyssey blocking+0.2% Tween 20 and incubated with cells overnight at 4° C. The next day, plates were washed 5× with wash buffer, incubated with IRDye 800 CW, Goat anti-Rabbit secondary antibody (Li—COR 926-32211, 1:500) and DRAQ5 (CST 4084L, 1:5,000) diluted in Odyssey blocking+0.2% Tween 20 for 1 hour, washed 5×, and imaged on an Odyssey CLx imaging system.
For data analysis, signal intensities from 800 (phosphor-ERK) and 700 (DRAQ5) channels were extracted, and phospho-ERK signals were normalized to DRAQ5 signals for each well and percent of DMSO control values were computed. Data were then imported into Graphpad Prism to compute half-maximal inhibitory concentrations (IC50) using a 4-parameter variable slope model. Z-factor for each plate was computed from signals derived from wells treated with either DMSO or […] of Trametinib. AGS pERK ICW (Method B) IC50 (uM) values of selected compounds are depicted in Table 2 with compounds having a value 0.001 uM to 0.01 uM as ++++; >0.01 uM to 0.1 uM as +++; >0.1 uM to 1 uM as ++; 1 uM to 10 uM as + and >10 uM as NA.

SMILES	IC50 [1]	IC50 [2]	IC50 ([1]; listed as 74.2)	IC50 ([2]; listed as 74.2)
Cc1noc(-c2cc3n(n2)CCCN(c2nc(OC[C@@]45CCCN4C[C@H](F)C5)nc(N4CC5(CCc6sc(N)c(C#N)c65)C4)c2C#N)C3)n1 [Compound 16, 2-amino-1′-[5-cyano-6-[2-(3-methyl-1,2,4-oxadiazol-5-yl)-4,6,7,8-tetrahydropyrazolo[1,5-a][1,4]diazepin-5-yl]-2-[[(2R,8S)-2-fluoro-1,2,3,5,6,7-hexahydropyrrolizin-8-yl]methoxy]pyrimidin-4-yl]spiro[5,6-dihydrocyclopenta[b]thiophene-4,3′-azetidine]-3-carbonitrile]	< 0.01 µM	0.1 to 1 µM	–	–
N#Cc1c(N2C[C@H]3CC[C@@H](C2)N3)nc(OCC2(CN3C[C@@H]4C[C@H]3CO4)CC2)nc1N1CC2(CCc3sc(N)c(C#N)c32)C1 [Compound 89, 2-amino-1′-[5-cyano-6-[(1R,5S)-3,8-diazabicyclo[3.2.1]octan-3-yl]-2-[[1-[[(1S,4S)-2-oxa-5-azabicyclo[2.2.1]heptan-5-yl]methyl]cyclopropyl]methoxy]pyrimidin-4-yl]spiro[5,6-dihydrocyclopenta[b]thiophene-4,3′-azetidine]-3-carbonitrile]	< 0.01 µM	0.01 to 0.1 µM	–	–
N#Cc1c(N2C[C@H]3CC[C@@H](C2)N3)nc(OC[C@@]23CCCN2C[C@H](F)C3)nc1N1CC2(CCc3sc(N)c(C#N)c32)C1 [Compound 25, 2-amino-1′-[5-cyano-6-(3,8-diazabicyclo[3.2.1]octan-3-yl)-2-[[(2R,8S)-2-fluoro-1,2,3,5,6,7-hexahydropyrrolizin-8-yl]methoxy]pyrimidin-4-yl]spiro[5,6-dihydrocyclopenta[b]thiophene-4,3′-azetidine]-3-carbonitrile]	< 0.01 µM	0.001 to 0.01 µM	–	–
N#Cc1c(N2CCCn3nc(C(=O)C4CC4)c(Cl)c3C2)nc(OC[C@@]23CCCN2C[C@H](F)C3)nc1N1CC2(CCc3sc(N)c(C#N)c32)C1 [Compound 62, 2-amino-1′-[6-[3-chloro-2-(cyclopropanecarbonyl)-4,6,7,8-tetrahydropyrazolo[1,5-a][1,4]diazepin-5-yl]-5-cyano-2-[[(2R,8S)-2-fluoro-1,2,3,5,6,7-hexahydropyrrolizin-8-yl]methoxy]pyrimidin-4-yl]spiro[5,6-dihydrocyclopenta[b]thiophene-4,3′-azetidine]-3-carbonitrile]	< 0.01 µM	0.01 to 0.1 µM	–	–
CN(C)C(=O)c1nn2c(c1Cl)CN(c1nc(OC[C@@]34CCCN3C[C@H](F)C4)nc(N3CC4(CCc5sc(N)c(C#N)c54)C3)c1C#N)CC(F)(F)C2 [Compound 91, 5-[6-(2-amino-3-cyano-spiro[5,6-dihydrocyclopenta[b]thiophene-4,3′-azetidine]-1′-yl)-5-cyano-2-[[(2R,8S)-2-fluoro-1,2,3,5,6,7-hexahydropyrrolizin-8-yl]methoxy]pyrimidin-4-yl]-3-chloro-7,7-difluoro-N,N-dimethyl-6,8-dihydro-4H-pyrazolo[1,5-a][1,4]diazepine-2-carboxamide]	< 0.01 µM	0.01 to 0.1 µM	–	–
N#Cc1c(N2C[C@H]3CC[C@@H](C2)N3)nc(OCC2(CN3CCOCC3)CC2)nc1N1CC2(CCCc3sc(N)c(C#N)c32)C1 [Compound 41, 2-amino-1′-[5-cyano-2-[[1-(morpholinomethyl)cyclopropyl]methoxy]-6-[(1R,5S)-3,8-diazabicyclo[3.2.1]octan-3-yl]pyrimidin-4-yl]spiro[6,7-dihydro-5H-benzothiophene-4,3′-azetidine]-3-carbonitrile]	< 0.01 µM	0.001 to 0.01 µM	–	–
Cn1nccc1COc1nc(N2C[C@H]3CC[C@@H](C2)N3)c(C#N)c(N2CC3(CCc4sc(N)c(C#N)c43)C2)n1 [Compound 97, 2-amino-1′-[5-cyano-2-[(2-methylpyrazol-3-yl)methoxy]-6-[(1R,5S)-3,8-diazabicyclo[3.2.1]octan-3-yl]pyrimidin-4-yl]spiro[5,6-dihydrocyclopenta[b]thiophene-4,3′-azetidine]-3-carbonitrile]	< 0.01 µM	0.1 to 1 µM	–	–
N#Cc1c(N2C[C@H]3CC[C@@H](C2)N3)nc(OC[C@@]23CCCN2C[C@H](F)C3)nc1N1CC2(C1)c1c(sc(N)c1C#N)CC1CC12 (stereo partly drawn) [Compound 99, 2-amino-1′-[5-cyano-6-[(1R,5S)-3,8-diazabicyclo[3.2.1]octan-3-yl]-2-[[(2R,8S)-2-fluoro-1,2,3,5,6,7-hexahydropyrrolizin-8-yl]methoxy]pyrimidin-4-yl]spiro[4a,5,5a,6-tetrahydrocyclopropa[f]benzothiophene-4,3′-azetidine]-3-carbonitrile]	< 0.01 µM	0.001 to 0.01 µM	–	–
CN(C)C(=O)c1nn2c(c1Cl)CN(c1nc(OC[C@@]34CCCN3C[C@H](F)C4)nc(N3CC4(CCCCc5sc(N)c(C#N)c54)C3)c1C#N)CCC2 [Compound 10, 5-[6-(2-amino-3-cyano-spiro[5,6,7,8-tetrahydrocyclohepta[b]thiophene-4,3′-azetidine]-1′-yl)-5-cyano-2-[[(2R,8S)-2-fluoro-1,2,3,5,6,7-hexahydropyrrolizin-8-yl]methoxy]pyrimidin-4-yl]-3-chloro-N,N-dimethyl-4,6,7,8-tetrahydropyrazolo[1,5-a][1,4]diazepine-2-carboxamide]	< 0.01 µM	0.01 to 0.1 µM	–	–
N#Cc1c(N2CCCC3(C2)NC(=O)NC3=O)nc(OC[C@@]23CCCN2C[C@H](F)C3)nc1N1CC2(CCc3sc(N)c(C#N)c32)C1 (stereo partly drawn) [Compound 12, 2-amino-1′-[5-cyano-6-(2,4-dioxo-1,3,9-triazaspiro[4.5]decan-9-yl)-2-[[(2R,8S)-2-fluoro-1,2,3,5,6,7-hexahydropyrrolizin-8-yl]methoxy]pyrimidin-4-yl]spiro[5,6-dihydrocyclopenta[b]thiophene-4,3′-azetidine]-3-carbonitrile]	< 0.01 µM	1 to 10 µM	–	–
CC1CC2(CN(c3nc(OC[C@@]45CCCN4C[C@H](F)C5)nc(N4CCCn5nc(C(=O)N(C)C)c(Cl)c5C4)c3C#N)C2)c2c1sc(N)c2C#N (stereo partly drawn) [Compound 14, 5-[6-(2-amino-3-cyano-6-methyl-spiro[5,6-dihydrocyclopenta[b]thiophene-4,3′-azetidine]-1′-yl)-5-cyano-2-[[(2R,8S)-2-fluoro-1,2,3,5,6,7-hexahydropyrrolizin-8-yl]methoxy]pyrimidin-4-yl]-3-chloro-N,N-dimethyl-4,6,7,8-tetrahydropyrazolo[1,5-a][1,4]diazepine-2-carboxamide]	< 0.01 µM	0.001 to 0.01 µM	–	–
N#Cc1c(N2C[C@H]3CC[C@@H](C2)N3)nc(OCC2(c3ccn[nH]3)CC2)nc1N1CC2(CCc3sc(N)c(C#N)c32)C1 [Compound 98, 2-amino-1′-[5-cyano-6-[(1R,5S)-3,8-diazabicyclo[3.2.1]octan-3-yl]-2-[[1-(1H-pyrazol-5-yl)cyclopropyl]methoxy]pyrimidin-4-yl]spiro[5,6-dihydrocyclopenta[b]thiophene-4,3′-azetidine]-3-carbonitrile]	< 0.01 µM	1 to 10 µM	–	–
Cc1nc(-c2nn3c(c2Cl)CN(c2nc(OC[C@@]45CCCN4C[C@H](F)C5)nc(N4CC5(CCc6sc(N)c(C#N)c65)C4)c2C#N)CCC3)n(C)n1 [Compound 85, 2-amino-1′-[6-[3-chloro-2-(2,5-dimethyl-1,2,4-triazol-3-yl)-4,6,7,8-tetrahydropyrazolo[1,5-a][1,4]diazepin-5-yl]-5-cyano-2-[[(2R,8S)-2-fluoro-1,2,3,5,6,7-hexahydropyrrolizin-8-yl]methoxy]pyrimidin-4-yl]spiro[5,6-dihydrocyclopenta[b]thiophene-4,3′-azetidine]-3-carbonitrile]	< 0.01 µM	0.01 to 0.1 µM	–	–
CN(C)CC1(COc2nc(N3CC4CCC(C3)N4)c(C#N)c(N3CC4(CCc5sc(N)c(C#N)c54)C3)n2)CC1(F)F (stereo not shown) [Compound 74B, 2-amino-1′-[5-cyano-6-(3,8-diazabicyclo[3.2.1]octan-3-yl)-2-[[(1*)-1-[(dimethylamino)methyl]-2,2-difluoro-cyclopropyl]methoxy]pyrimidin-4-yl]spiro[5,6-dihydrocyclopenta[b]thiophene-4,3′-azetidine]-3-carbonitrile]	–	–	0.01 to 0.1 µM	1 to 10 µM
